From ChEMBL document CHEMBL1255343, “Activities of daptomycin and comparative antimicrobials, singly and in combination, against extracellular and intracellular Staphylococcus aureus and its stable small-colony variant in human monocyte-derived macrophages and in broth” (2008)
Values after ≈ are worked out from the molar mass of the structure shown. Active and inactive are the calls of the source. The rule behind the calls is not given here.

Legend:
Staphylococcus aureus [1] = assay: Antimicrobial activity against Staphylococcus aureus 2546; type: functional
Staphylococcus aureus [2] = assay: Antimicrobial activity against Staphylococcus aureus 2549 small colony variants; type: functional
Staphylococcus aureus [3] = assay: Antimicrobial activity against Staphylococcus aureus 2547 small colony variants; type: functional
Staphylococcus aureus [4] = assay: Antimicrobial activity against Staphylococcus aureus 2548; type: functional
Staphylococcus aureus [5] = assay: Antimicrobial activity against extracellular Staphylococcus aureus 2548 after 4 hrs in MH-II broth; type: functional, organism-based
Staphylococcus aureus [6] = assay: Antimicrobial activity against intracellular Staphylococcus aureus 2548 infected in human monocyte-derived macrophages after 48 hrs; type: functional, organism-based
Staphylococcus aureus [7] = assay: Antimicrobial activity against extracellular Staphylococcus aureus 2549 small colony variants after 4 hrs in MH-II broth; type: functional, organism-based
Staphylococcus aureus [8] = assay: Antimicrobial activity against extracellular Staphylococcus aureus 2546 after 4 hrs in MH-II broth; type: functional, organism-based

Molecule | MIC (Staphylococcus aureus [1]) | MIC (Staphylococcus aureus [2]) | MIC (Staphylococcus aureus [3]) | MIC (Staphylococcus aureus [4]) | Activity (Staphylococcus aureus [5]) | Activity (Staphylococcus aureus [6]) | Activity (Staphylococcus aureus [7]) | Activity (Staphylococcus aureus [8])
Cc1onc(-c2ccccc2)c1C(=O)N[C@@H]1C(=O)N2[C@@H]1SC(C)(C)[C@@H]2C(=O)O [OXACILLIN] | 0.25 µg/mL (≈ 0.623 µM) | 0.5 µg/mL (≈ 1.25 µM) | 0.5 µg/mL (≈ 1.25 µM) | 0.25 µg/mL (≈ 0.623 µM) |  |  |  | 
CCC[C@@H]1C[C@@H](C(=O)N[C@@H]([C@H]2O[C@H](SC)[C@H](O)[C@@H](O)[C@H]2O)[C@H](C)Cl)N(C)C1 [CLINDAMYCIN] | 0.125 µg/mL (≈ 0.294 µM) | 0.25 µg/mL (≈ 0.588 µM) | 0.25 µg/mL (≈ 0.588 µM) | 0.06 µg/mL (≈ 0.141 µM) |  |  |  | 
GENTAMICIN | 2 µg/mL | 16 µg/mL | 4 µg/mL | 8 µg/mL | Active | Active | Active | Active
CCCCCCCCCC(=O)N[C@@H](Cc1c[nH]c2ccccc12)C(=O)N[C@H](CC(N)=O)C(=O)N[C@@H](CC(=O)O)C(=O)N[C@@H]1C(=O)NCC(=O)N[C@@H](CCCN)C(=O)N[C@@H](CC(=O)O)C(=O)N[C@H](C)C(=O)N[C@@H](CC(=O)O)C(=O)NCC(=O)N[C@H](CO)C(=O)N[C@@H]([C@H](C)CC(=O)O)C(=O)N[C@@H](CC(=O)c2ccccc2N)C(=O)O[C@@H]1C | 1 µg/mL (≈ 0.617 µM) | 0.5 µg/mL (≈ 0.309 µM) | 1 µg/mL (≈ 0.617 µM) | 1 µg/mL (≈ 0.617 µM) | Active | Active | Active | Active
CO[C@H]1/C=C/O[C@@]2(C)Oc3c(C)c(O)c4c(O)c(c(/C=N/N5CCN(C)CC5)c(O)c4c3C2=O)NC(=O)/C(C)=C\C=C\[C@H](C)[C@H](O)[C@@H](C)[C@@H](O)[C@@H](C)[C@H](OC(C)=O)[C@@H]1C [RIFAMPIN] | 0.125 µg/mL (≈ 0.152 µM) | 0.06 µg/mL (≈ 0.0729 µM) | 0.06 µg/mL (≈ 0.0729 µM) | 0.125 µg/mL (≈ 0.152 µM) |  | Active |  | 
